Key:
Format in all cases: cell-based
[1] = molecular target: T1, human PKCa (hPKCa) (Homo sapiens, UniProt P17252); test: JWB003 labeling of C1 domain protein kinases; conditions: transfected HEK293T cells
T1 construct: expressed in transfected cells; host or cells: HEK293T
Description: (§1) • 1. HEK293T cells were harvested in cold PBS. • a. Cells were transferred to Eppendorf tube. • 2. Cells were lysed via tip sonicator. • 3. Cells were fractionated into membrane and soluble fraction. • a. 100,000×G for 45 minutes at 4 degree. • b. Supernatant was separated from cell pellet. • 4. Dilute proteomes to 1 mg/mL in PBS and aliquot appropriate reaction volume (49 μL for probe only; 48 μL for competition+probe) • 5. Cells were treated with 50× inhibitor. • a. Incubated for 1Hr at 37 degree. • 6. Cells were treated with 50× Probe (JWB003). • a. Incubated for 1Hr at 37 degree. • 7. Add 6 μL of master mix to each alkyne probe-labeled sample. • a. 1 μL of 1.25 mM Rh-N3 • b. 1 μL of fresh 50 mM TCEP • c. 3 μL of 1.7 mM TBTA stock • d. 1 μL of 50 mM CuSO4 • 8. Vortex samples. • 9. Incubate at room temperature for 1 hr • 10. Quench with 17 μL of 4×SDS-PAGE loading buffer+βME and vortex tubes. • 11. Analyze 30 μL samples by SDS-PAGE immediately. [B] Labeling HEK293T Cells to Determine Target Proteins of JWB003 in Live Cells (In Situ) • 1. Complete media was removed from HEK293T cells and replaced with serum free media containing JWB003 at the appropriate final concentration • a. Cells were placed in incubator for appropriate time at 37 degree 5% CO2 • 2. Cells were washed • a. 2× warm PBS • b. 2× cold PBS • c. Harvest cells in cold PBS • 3. Cells were transferred to Eppendorf tube • 4. […]

[2] = system: recombinant DGK isoforms (total of 10); test: JWB003 labeling in live cells (in situ); conditions: live HEK293T cells
Description: as §1

[3] = molecular target: T2, recombinant hDGKa (Homo sapiens, UniProt P23743); test: JWB003 labeling in live cells (in situ); conditions: 25 μM; transfected HEK293T cells
T2 construct: expressed in transfected cells; host or cells: HEK293T
T2 sequence (P23743 whole entry): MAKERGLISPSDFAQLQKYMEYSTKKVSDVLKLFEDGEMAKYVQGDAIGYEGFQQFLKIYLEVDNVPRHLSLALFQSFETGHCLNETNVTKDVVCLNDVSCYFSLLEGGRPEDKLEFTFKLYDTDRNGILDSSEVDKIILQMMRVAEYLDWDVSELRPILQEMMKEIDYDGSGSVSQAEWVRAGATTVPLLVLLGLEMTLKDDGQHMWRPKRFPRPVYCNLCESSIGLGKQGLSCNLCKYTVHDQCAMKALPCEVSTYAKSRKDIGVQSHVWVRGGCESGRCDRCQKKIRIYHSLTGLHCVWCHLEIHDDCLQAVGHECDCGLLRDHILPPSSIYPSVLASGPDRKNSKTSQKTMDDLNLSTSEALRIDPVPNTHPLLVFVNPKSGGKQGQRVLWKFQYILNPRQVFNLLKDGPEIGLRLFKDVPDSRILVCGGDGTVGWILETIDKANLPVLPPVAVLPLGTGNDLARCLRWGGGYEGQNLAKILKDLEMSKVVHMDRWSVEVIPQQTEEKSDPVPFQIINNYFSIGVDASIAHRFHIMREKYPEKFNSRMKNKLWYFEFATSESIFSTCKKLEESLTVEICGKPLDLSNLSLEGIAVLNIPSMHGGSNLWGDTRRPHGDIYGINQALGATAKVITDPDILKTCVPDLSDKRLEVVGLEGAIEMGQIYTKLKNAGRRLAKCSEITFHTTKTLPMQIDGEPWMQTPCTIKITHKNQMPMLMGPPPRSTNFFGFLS
Description: as §1

[4] = system: A549 cells; test: WST-1 Cell Proliferation Assay; conditions: ritanserin, ketanserin 5-50 μM; staurosporine 1 μM
Description: (§2) WST-1 Cell Proliferation Assays. Tumor cells were plated in transparent tissue-culture treated 96-well plates at a density of 100,000 cells/mL (A549, H1650) or 200,000 cells/mL (H82) in a volume of 100 μL per well. Cells were treated with dimethyl sulfoxide (DMSO) vehicle or inhibitors dissolved in DMSO at the indicated concentrations (final DMSO concentration of 0.5%). Cells were allowed to grow for indicated times at 37° C. under 5% CO2. Afterwards, equal parts of WST-1 developer reagent and electron mediator solution were mixed and 10 μL of the resulting solution (‘WST-1 reagent’) were added to each well. Plates were shaken in an orbital shaker for 60 s and then returned to the incubator for two hrs. Plates were again shaken followed measurement of absorbance at 450 nm. Data were normalized to DMSO-treated wells and significance values determined with one-way ANOVA.

[5] = system: H1650 cells; test: WST-1 Cell Proliferation Assay; conditions: ritanserin, ketanserin 5-50 μM; staurosporine 1 μM
Description: as §2

[6] = system: H82 cells; test: WST-1 Cell Proliferation Assay; conditions: ritanserin, ketanserin 5-50 μM; staurosporine 1 μM
Description: as §2

[7] = system: Bone Marrow Derived Macrophages (BMDMs), noncancerous primary cells; test: WST-1 Cell Proliferation Assay; conditions: ritanserin highest concentration tested 50 μM; staurosporine 1 μM

time at which probe labeling of hDGKa saturates [3] [min] | SMILES | labeling of hPKCa [1] | labeling of recombinant DGK isoforms [2] | cell viability (WST-1), words [4] | cell viability (WST-1), words [5] | cell viability (WST-1), words [6] | cell killing of noncancerous primary cells (WST-1), words [7]
60 | C#CCCC(=O)NCCN1CCN(C/C=C/C(=O)N2CCC(=C(c3ccc(F)cc3)c3ccc(F)cc3)CC2)CC1 [JWB003] | labeling of hPKCa in the membrane but not soluble fraction | effective labeling of all ten proteins in live cells |  |  |  | 
 | CN[C@@H]1C[C@H]2O[C@@](C)([C@@H]1OC)n1c3ccccc3c3c4c(c5c6ccccc6n2c5c31)C(=O)NC4 [Staurosporine] |  |  | general cytotoxicity across all cells tested | general cytotoxicity across all cells tested | general cytotoxicity across all cells tested | general cytotoxicity across all cells tested

— patent US12643867B2, “Compositions and uses thereof” (University of Virginia Patent Foundation, priority 2017, dated 2026)
